# Measured values from patent publication US11345669B2, “Urea derivatives and methods of use thereof” (NodThera Limited, priority 2017, dated 2022).
# System: IL1-β release upon NLRP3 activation in peripheral blood mononuclear cells (PBMC)
# Assay: PBMC IC50 Determination Assay
# Format: cell-based
# Details: Homo sapiens, PBMC, read-out: PBMCs, IC50, μM
# Experimental: PBMC IC50 Determination Assay
# The compounds of the present disclosure were tested for their inhibitory activity against IL1-β release upon NLRP3 activation in peripheral blood mononuclear cells (PBMC).
# Isolated cells were seeded into the wells of a 96-well plate and incubated for 3 h with lipopolysaccharide (LPS). Following medium exchange, the compounds of the present disclosure were added (a single compound per well) and the cells were incubated for 30 min. Next, the cells were stimulated either with ATP (5 mM) or nigericin (10 μM) for 1 h and the cell culture media from the wells were collected for further analysis.
# The release of IL-1β into the media was determined by a quantitative detection of IL-1β in 5 the media using an IL-1β enzyme-linked immunosorbent assay (ELISA) Ready-SET-Go!, eBioscience cat. […] Subsequently, plates were blocked with blocking buffer for 1 h at room temperature (rt) and after washing with a buffer (PBS with 0.05% Tween-20) incubated with protein standard and culture media. […] Plates were washed and incubated with HRP-streptavidin for 30 min at rt and washed again. The signal was developed after addition of 3,39,S,59-tetramethylbenzidine-peroxidase (TMB) until color appeared and the reaction was stopped by 2 M H2SO4. A microplate spectrophotometer (BioTek) was used to detect signals with 450 nm. The detection range of IL-1β ELISA was […].
row,SMILES,IC50
1,"COC(=O)C(Cc1cnn(C)c1)NC(=O)Nc1c2c(cc3c1CCC3)CCC2 (stereo not shown) [Example 2Q, Methyl 2-{[(1,2,3,5,6,7-hexahydro-s-indacen-4-yl)carbamoyl]amino}-3-(1-methyl-1H-pyrazol-4-yl)propanoate]",2.4 µM
2,"CCOC(=O)CNC(=O)Nc1cc2c(c3c1CCCC3)CCC2 [Example 2T, Ethyl 2-[({1H,2H,3H,6H,7H,8H,9H-cyclopenta[a]naphthalen-5-yl}carbamoyl)amino] acetate]",3.1 µM

# Same assay, conditions: Homo sapiens; PBMC from buffy coats, LPS 3 h, compound 30 min, then ATP (5 mM) or nigericin (10 μM) for 1 h; IL-1β in media by ELISA; read-out: PBMCs, IC50
row,SMILES,IC50
1,"COC(=O)[C@@H](Cc1cccc(C#N)c1)NC(=O)Nc1c2c(cc3c1CCC3)CCC2 [Example 2E, Methyl(2R)-3-(3-cyanophenyl)-2-{[(1,2,3,5,6,7-hexahydro-s-indacen-4-yl)carbamoyl]amino}propanoate]",1.7 µM
2,"COC[C@@H](NC(=O)Nc1c2c(cc3c1CCC3)CCC2)C(=O)OC [Example 2II, methyl(2R)-2-{[(1,2,3,5,6,7-hexahydro-s-indacen-4-yl)carbamoyl]amino}-3-methoxypropanoate]",5.3 µM
3,"COC(=O)[C@@H](Cc1cncc(OC)c1)NC(=O)Nc1c2c(cc3c1CCC3)CCC2 [Example 2WW, Methyl (2R)-2-{[(1,2,3,5,6,7-hexahydro-s-indacen-4-yl)carbamoyl]amino}-3-(5-methoxypyridin-3-yl)propanoate]",0.45 µM
4,"COC(=O)[C@@H](Cc1cccc(CO)c1)NC(=O)Nc1c2c(cc3c1CCC3)CCC2 [Example 2M, Methyl(2R)-2-{[(1,2,3,5,6,7-hexahydro-s-indacen-4-yl)carbamoyl]amino}-3-[3-(hydroxymethyl)phenyl]propanoate]",0.38 µM
5,"COC(=O)[C@@H](Cc1cccc(N2CCCC2=O)c1)NC(=O)Nc1c2c(cc3c1CCC3)CCC2 [Example 2R, Methyl(2R)-2-{[(1,2,3,5,6,7-hexahydro-s-indacen-4-yl)carbamoyl]amino}-3-[3-(2-oxopyrrolidin-1-yl)phenyl]propanoate]",0.33 µM
6,"CCOC(=O)CNC(=O)Nc1c2c(cc3c1CCC3)CCC2 [Example 2X, ethyl 2-{[(1,2,3,5,6,7-hexahydro-s-indacen-4-yl)carbamoyl]amino}acetate]",1.5 µM
7,"COC(=O)C(Cc1cccc(O)c1)NC(=O)Nc1c2c(cc3c1CCC3)CCC2 (stereo not shown) [Example 2A, Methyl2-{[(1,2,3,5,6,7-hexahydro-s-indacen-4-yl)carbamoyl]amino}-3-(3-hydroxyphenyl)propanoate]",2.5 µM
8,"CCOC(=O)C(Cc1ncco1)NC(=O)Nc1c2c(cc3c1CCC3)CCC2 (stereo not shown) [Example 2AC, Ethyl 2-{[(1,2,3,5,6,7-hexahydro-s-indacen-4-yl)carbamoyl]amino}-3-(1,3-oxazol-2-yl)propanoate]",0.67 µM
9,"COC(=O)C(Cc1cccc(-c2cc[nH]n2)c1)NC(=O)Nc1c2c(cc3c1CCC3)CCC2 (stereo not shown) [Example 2J, Methyl 2-{[(1,2,3,5,6,7-hexahydro-s-indacen-4-yl)carbamoyl]amino}-3-[3-(1H-pyrazol-5-yl)phenyl]propanoate]",0.41 µM
10,"COC(=O)[C@@H](Cc1cccnc1)NC(=O)Nc1c2c(cc3c1CCC3)CCC2 [Example 2H, Methyl (2R)-2-{[(1,2,3,5,6,7-hexahydro-s-indacen-4-yl)carbamoyl]amino}-3-(pyridin-3-yl)propanoate]",0.88 µM
11,"CCOC(=O)C(Cc1ccnnc1)NC(=O)Nc1c2c(cc3c1CCC3)CCC2 (stereo not shown) [Example 2AG, Ethyl 2-{[(1,2,3,5,6,7-hexahydro-s-indacen-4-yl)carbamoyl]amino}-3-(pyridazin-4-yl)propanoate]",6 µM
12,"O=C(Nc1c2c(cc3c1CCC3)CCC2)N[C@H](Cc1cccnc1)C(=O)OC1CCC1 [Example 2NN, cyclobutyl (2R)-2-{[(1,2,3,5,6,7-hexahydro-s-indacen-4-yl)carbamoyl]amino}-3-(pyridin-3-yl)propanoate]",0.6 µM
13,"O=C(Nc1c2c(cc3c1CCC3)CCC2)NC(Cc1ncccn1)C(=O)O (stereo not shown) [Example 2AJ, 2-{[(1,2,3,5,6,7-hexahydro-s-indacen-4-yl)carbamoyl]amino}-3-(pyrimidin-2-yl)propanoic acid]",15 µM
14,"COC(=O)[C@@H](CCSC)NC(=O)Nc1c2c(cc3c1CCC3)CCC2 [Example 2O, Methyl(2R)-2-{[(1,2,3,5,6,7-hexahydro-s-indacen-4-yl)carbamoyl]amino}-4-(methylsulfanyl)butanoate]",3.2 µM
15,"COC(=O)[C@@H](Cc1cccnn1)NC(=O)Nc1c2c(cc3c1CCC3)CCC2 [Example 2YY, Methyl (2R)-2-{[(1,2,3,5,6,7-hexahydro-s-indacen-4-yl)carbamoyl]amino}-3-(pyridazin-3-yl)propanoate]",3.3 µM
16,"COC(=O)[C@@H](CO)NC(=O)Nc1c2c(cc3c1CCC3)CCC2 [Example 2JJ, methyl(2R)-2-{[(1,2,3,5,6,7-hexahydro-s-indacen-4-yl)carbamoyl]amino}-3-hydroxypropanoate]",26 µM
17,"O=C(Nc1c2c(cc3c1CCC3)CCC2)N[C@H](Cc1ccccc1)C(=O)O [Example 2SS, (2R)-2-{[(1,2,3,5,6,7-hexahydro-s-indacen-4-yl)carbamoyl]amino}-3-phenylpropanoic acid]",14 µM
18,"COC(=O)[C@@H](Cc1cccc(N)c1)NC(=O)Nc1c2c(cc3c1CCC3)CCC2 [Example 2HH, methyl(2R)-3-(3-aminophenyl)-2-{[(1,2,3,5,6,7-hexahydro-s-indacen-4yl)carbamoyl]amino}propanoate]",4.4 µM
19,"COC(=O)C(Cn1ccnc1)NC(=O)Nc1c2c(cc3c1CCC3)CCC2 (stereo not shown) [Example 2DD, methyl 2-{[(1,2,3,5,6,7-hexahydro-s-indacen-4-yl)carbamoyl]amino}-3-(1H-imidazol-1-yl)propanoate]",6.2 µM
20,"CCOC(=O)[C@@H](Cc1cccnc1)NC(=O)Nc1c(C(C)C)cccc1C(C)C [Example 2UU, Ethyl (2R)-2-({[2,6-bis(propan-2-yl)phenyl]carbamoyl}amino)-3-(pyridin-3-yl)propanoate]",21 µM
21,"CCOC(=O)C(Cc1nc(C)no1)NC(=O)Nc1c2c(cc3c1CCC3)CCC2 (stereo not shown) [Example 2XX, Ethyl 2-{[(1,2,3,5,6,7-hexahydro-s-indacen-4-yl)carbamoyl]amino}-3-(3-methyl-1,2,4-oxadiazol-5-yl)propanoate]",5.1 µM
22,"CC(C)OC(=O)CNC(=O)Nc1c2c(cc3c1CCC3)CCC2 [Example 2AA, propan-2-yl 2-{[(1,2,3,5,6,7-hexahydro-s-indacen-4-yl)carbamoyl]amino}acetate]",1.8 µM
23,"COC(=O)[C@@H](CN)NC(=O)Nc1c2c(cc3c1CCC3)CCC2 [Example 2N, Methyl(2R)-3-amino-2-{[(1,2,3,5,6,7-hexahydro-s-indacen-4-yl)carbamoyl]amino}propanoate]",9.3 µM
24,"COC(=O)[C@@H](Cc1ccccn1)NC(=O)Nc1c2c(cc3c1CCC3)CCC2 [Example 2F, Methyl (2R)-2-{[(1,2,3,5,6,7-hexahydro-s-indacen-4-yl)carbamoyl]amino}-3-(pyridin-2-yl)propanoate]",4.2 µM
25,"CCOC(=O)C(Cc1ccncn1)NC(=O)Nc1c2c(cc3c1CCC3)CCC2 (stereo not shown) [Example 2AI, ethyl 2-{[(1,2,3,5,6,7-hexahydro-s-indacen-4-yl)carbamoyl]amino}-3-(pyrimidin-4-yl)propanoate]",6.8 µM
26,"CCOC(=O)C(Cc1ccon1)NC(=O)Nc1c2c(cc3c1CCC3)CCC2 (stereo not shown) [Example 2AB, Ethyl 2-{[(1,2,3,5,6,7-hexahydro-s-indacen-4-yl)carbamoyl]amino}-3-(1,2-oxazol-3-yl)propanoate]",1.8 µM
